From article PMC11222247, “PEGylation renders carnosine resistant to hydrolysis by serum carnosinase and increases renal carnosine levels” (Amino Acids, 2024)
Marks after values point to notes of the source that are not given here.

How the values were obtained:
[1] = Pharmacokinetics in serum of mice after single intravenous injection (LC-MS/MS); format: in vivo, C57BL/6J mice; conditions: for half-life: 1000 mg/kg i.v. single injection, noncompartmental, naive pooled; for AUC: 0 to 240 min sampling
Method: (§1) Six- to eight-week-old male C57BL/6J (20–25 g) mice were purchased from Sino-British SIPPR/BK Lab Animal Ltd (Shanghai, China). After ad libitum feeding for one week, the mice were randomly divided into three groups: the control group (n = 3, saline treated), the PEG-car treated group (n = 3) and the L-carnosine treated group (n = 3). Hereof, each mouse was respectively injected intravenously (i.v.) with saline, PEG-car (1000 mg/kg) or L-carnosine (1000 mg/kg) through the tail vein. The mice were anaesthetized by the inhalation of isoflurane during the injection. Blood samples were collected in EDTA tubes by cardiac puncture at 0, 5, 15, 30, 60, 120, 240 min after the administration of PEG-car or L-carnosine. Sera were obtained by centrifugation of the blood sample at 6800 g for 6 min at 4 ℃. Right after sacrifice, the mice were perfused by phosphate-buffered saline to remove the remaining blood. The brains and kidneys were carefully isolated thereafter. The tissues were stored at − 80 ℃and the sera were stored at − 20 ℃ untill use.
(§2) PEG-car or L-carnosine levels in serum and tissues were determined by liquid chromatography tandem-mass spectrometry (LC-MS/MS). Warfarin (Sigma-Aldrich, St. Louis, MO, USA) was used as internal standard (IS). The entire procedure for sample and standard preparation was carried out on ice. An aliquot of 20 µL serum or homogenized 40 mg tissue were pipetted into centrifuge tube and then 400 µL methanol was added for protein precipitation. After spiking the IS (40 ng for serum and 4 ng for kidney), the samples were vortexed for 1 min and then centrifuged at 18,000 g for 7 min at 4 ℃. The supernatant was used for the assay. The calibration curves were prepared by spiking the known concentrations of PEG-car or L-carnosine into serum or tissue homogenates obtained from untreated mice.
(§3) The concentrations were measured by a UHPLC system (Shimadzu LC-40D XS, Japan) coupled with electrospray ionization (ESI) and triple quadrupole-ion trap mass spectrometry (AB SCIEX QTRAP® 6500+, Singapore). PEG-car was performed in ACQUITY UPLC BEH C18 column (2.1 mm×50 mm, 1.7 μm, Waters, USA) with a 0.6 mL/min flow rate of mobile phase using gradient elution of ultrapure water (2mM Ammonium acetate (Sinopharm Chemical Reagent Co., Ltd, Shanghai, China) containing 0.1% formic acid, eluent A) and acetonitrile (2mM Ammonium formate (Sinopharm Chemical Reagent Co., Ltd, Shanghai, China) containing 0.1% formic acid, eluent B). The solvent gradient was changed according to the following program: 0–0.01 min 10%B, 0.01–0.6 min 10-90%B, 0.6–1.2 min 90%B, 1.2–1.21 min 90%-10%B, 1.21–1.5 min 10%B. L-carnosine was performed in ACQUITY UPLC BEH Amide column (2.1 mm×50 mm, 1.7 μm, Waters, USA) with a 0.6 mL/min flow rate of mobile phase using gradient elution of ultrapure water (2mM Ammonium acetate containing 0.1% formic acid, eluent A) and acetonitrile (2mM Ammonium formate containing 0.1% formic acid, eluent B). The solvent gradient was as follows: 0–0.01 min 90%B, 0.01–0.6 min 90%-40%B, 0.6–1.2 min 40%B, 1.2–1.21 min 40-90%B, 1.21–1.5 min 90%B. The injection volume was 5 µL. The QTRAP® 6500 + was operated in positive mode, multiple reaction monitoring (MRM) in unit resolution for Q1 and Q3. For detection of PEG-car, three transitions were set with a Q1 mass of 776.4, and Q3 masses of 109.9 (Collision Energy (CE) 119), 126.8 (CE 51), 707.2 (CE 38). For L-carnosine, four transitions were set with a Q1 mass of 227.3, and Q3 masses of 83.1 (CE 53), 110.0(CE 31), 156.2(CE 21), 210.2(CE 16). Pharmacokinetic parameters were calculated by noncompartmental analysis using a sparse sampling and naïve pooled approach (Phoenix WinNonLin 7.0, Certara, Mountain View, CA, USA).

[2] = Pharmacokinetics in kidney of mice after single intravenous injection (LC-MS/MS); format: in vivo, C57BL/6J mice; conditions: for AUC: 0 to 240 min sampling; for half-life: 1000 mg/kg i.v. single injection, noncompartmental, naive pooled
Method: as §1, §2, §3

[3] = target: T1, carnosinase-1 (recombinant Human CN-1) (Homo sapiens, UniProt Q96KN2); assay: Enzymatic hydrolysis by carnosinase-1 (histidine release, fluorometric assay); format: biochemical; conditions: for Fluorescence (proportional to histidine release) on incubation with recombinant CN-1: 1 mM substrate, Tris/HCl 50 mM pH 7.5, 30 °C, 5-80 min, Fig. 3; for Hydrolysis in human serum: as worded in the abstract: human serum
T1 construct: purchased Novoprotein Company, Suzhou, China
T1 sequence (Q96KN2 26-507): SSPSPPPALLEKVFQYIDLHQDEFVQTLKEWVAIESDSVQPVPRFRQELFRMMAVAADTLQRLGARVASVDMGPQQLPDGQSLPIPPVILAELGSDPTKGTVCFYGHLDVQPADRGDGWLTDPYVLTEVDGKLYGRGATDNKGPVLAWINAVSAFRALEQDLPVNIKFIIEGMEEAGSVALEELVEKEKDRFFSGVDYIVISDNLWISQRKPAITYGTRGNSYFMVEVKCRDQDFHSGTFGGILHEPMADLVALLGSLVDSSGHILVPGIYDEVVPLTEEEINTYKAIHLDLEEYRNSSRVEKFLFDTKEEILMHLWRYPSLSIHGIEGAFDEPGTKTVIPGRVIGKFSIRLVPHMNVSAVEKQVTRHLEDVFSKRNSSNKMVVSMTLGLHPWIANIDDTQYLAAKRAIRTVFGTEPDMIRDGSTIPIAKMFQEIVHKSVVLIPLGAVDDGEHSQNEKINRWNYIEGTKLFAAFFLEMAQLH
Method: The resistance of the PEG-car to the enzymatic hydrolysis by carnosinase-1 was assayed by a previously designed enzymatic activity test (Lenney et al. [1982]). Briefly, PEG, PEG-car and L-carnosine (1 mM) respectively were incubated in Tris/HCl buffer (50 mM, pH 7.5) at 30 °C with carnosinase-1 (recombinant Human CN-1, Novoprotein Company, Suzhou, China). Aliquots of each sample taken after 5, 10, 20, 30, 40, 60, 80 min, and the enzymatic reaction was stopped by addition of 50 µL of 1% trichloroacetic acid (TCA). After addition of 50 µL of 5 mg/mL o-pthaldialdehyde dissolved in 2 M NaOH and incubation for 30 min at 30 °C, the amount of liberated histidine was quantified by fluorometric assay conducted by a multifunctional enzyme marker reader.

[4] = male, C57BL/6J, mouse, iv, read-out: Half-Life
[5] = male, C57BL/6J, mouse, iv, 1000 mg/kg i.v., at 5 min

clearance ([1]; male, C57BL/6J, mouse, iv, 1000 mg/kg i.v.) [mL/min/kg] | half-life [1, 4] [h] | AUC ([1]; male, C57BL/6J, mouse, iv, 1000 mg/kg i.v., read-out: AUC (converted)) [µg·h/mL] | Cmax [1, 5] [µg/mL] | Vd ([1]; male, C57BL/6J, mouse, iv, 1000 mg/kg i.v., read-out: Vss) [L/kg] | half-life [2, 4] [h] | Cmax [2, 5] [ng/g] | Molecule | CL ([2]; 1000 mg/kg i.v.) | Vss ([2]; 1000 mg/kg i.v.) | AUC ([2]; 1000 mg/kg i.v.) | Fluorescence (proportional to histidine release) on incubation with recombinant CN-1 [3] | Hydrolysis in human serum [3] | CL ([1]; 1000 mg/kg i.v.) [mL/min/kg] | Vss ([1]; 1000 mg/kg i.v.) | half-life [1] [h] | AUC ([1]; 1000 mg/kg i.v.) | Cmax (5 min) ([1]; 1000 mg/kg i.v., at 5 min) [µg/mL] | half-life [2] | Cmax (5 min) ([2]; 1000 mg/kg i.v., at 5 min) | Inhibition of CN-1 activity ([3]; mixture of PEG-car with L-carnosine incubated with recombinant CN-1)
15.4 | 1.03 | 1080 | 2860 | 0.606 | 1.75 | 5.91e+06 | NCCC(=O)N[C@@H](Cc1cnc[nH]1)C(=O)O [L-carnosine, reference compound] | 1.59^d g/min/kg | 208^e g/kg | 518,040^c ng/mg tissue·min | fluorescence increased with time | rapidly hydrolyzed | – | – | – | – | – | – | – | –
– | – | – | – | – | – | – | mPEG-carnosine | 3.47^d* g/min/kg | 830^e* g/kg | 173,340^c* ng/mg tissue·min | approximately six times lower than that of the carnosine sample | highly resistant to hydrolysis | 14.84 | 294* mL/kg | 0.533 | 67,730 µg/mL·min | 2671 | 168* min | 3899^b* ng/mg tissue | the activity of CN-1 cannot be inhibited by PEG-car
